Assay results published in patent EP0835604A1, “Halopropargyl compounds as marine antifouling agents” (ROHM AND HAAS COMPANY, priority 1996, dated 1998).

Tests used:
Artemia = assay: Toxicity to Artemia nauplii in ASTM sea water, 96 well plate serial dilution; assay type: in vivo, Artemia salina; settings: 24 Hours; highest dilution in which all of the nauplii are dead; 25 °C
Description: Tests were conducted to determine the toxicity of the marine antifouling agents of the invention to Artemia. Artemia are indicative of hard fouling organisms.
Substitute ocean water was prepared following ASTM Method D 1141-90. The water was sterilized by filtration through a 0.22 micron cellulose acetate membrane filter. San Francisco Bay Brand® Artemia salina cysts were purchased from a local aquarium supply store. The cysts were hatched in a 250 mL Erlenmeyer flask. The Artemia cysts (0.2 g) were weighed into a sterilized flask. One hundred mL of sterile ASTM sea water was added to the flask. The flask was placed on an orbital shaker set at approximately 150 rotations per minute and 28 °C. After 24 hours, the contents of the flask were poured into a separatory funnel. The egg shells were separated from the Artemia nauplii (larvae), as the shells floated to the top. The nauplii were returned to the flask for another 24 hours shaking. The inoculum was prepared by pouring the nauplii into a crystallizing dish 48 hours after the cysts were originally placed on the shaker. After the nauplii congregated, they were taken up in a sterile serological pipette and transferred into another crystallizing dish. […] The number of nauplii in 3 to 4 wells was counted under a microscope. […]
Plates were read under a low magnification microscope 24 and 48 hours after the nauplii were added to the plate. […]

[1] = tested on: Amphora coffeaeformis var. perpusilla; assay: Toxicity to Amphora: growth inhibition by chlorophyll a concentration; assay type: cell-based; settings: 96 hours at 20 °C, % inhibition of the mean control; for EC 50: dose effective at preventing 50% growth; for EC 100: dose effective at preventing 100% growth
Description: Tests were conducted to determine the toxicity of the marine antifouling agents of the invention to Amphora. Amphora are indicative of soft fouling organisms. Amphora coffeaeformis var. perpusilla was isolated from a natural biofilm and cultured axenically in Guillard's F2 medium. A log phase culture of Amphora was diluted with the F2 medium to give a chlorophyll a concentration of 0.25 µg/mL. Chlorophyll a was measured by passing a measured volume (FV) of cell culture through a 3 µm pore, 25 mm diameter cellulose nitrate filter. The filter plus trapped algal cells was transferred to a glass tube. A measured volume (SV) of DMSO solvent was added to the glass tube. The tubes were incubated for 1.5 hours in darkness. After incubation, the absorbance of the sample was read in a spectrophotometer at 630 and 664 nm against a DMSO/filter blank. The chlorophyll a concentration can be calculated using the following equation: Chlorophylla(µg/mL) = 11.47 x Abs664 - 0.4 x Abs630 x SV/FV [formula] Ten mL of the diluted culture was pipetted into glass tubes. Ten µL of marine antifouling agent or, in the case of controls, DMF was added to each glass tube. The tubes were incubated on an illuminated orbital shaker at 20 °C for 96 hours before the chlorophyll a concentration of each tube was measured Three replicates of each treatment were used. The effects of marine antifouling agents are calculated as % inhibition of the mean control. The EC 50 is the dose effective at preventing 50% growth. The EC 100 is the dose effective at preventing 100% growth.

| Compound | Artemia LC 100 (Artemia) | EC 50 [1] | EC 100 [1] |
| --- | --- | --- | --- |
| CCCCCCCC[N+](CC#CBr)(CCCCCCCC)CCCCCCCC.O=S(=O)([O-])c1ccccc1 [Compound 18, trioctyl-(3-bromopropargyl)ammonium benzenesulfonate] | <8 ppm | – | – |
| O=c1oc2ccccc2n1CC#CI [Compound 146, 3-(3-iodopropargyl)-2-benzoxazolone] | – | 3 ppm | 20 ppm |
| CCCCCCCCCCCCCC[N+]1(CC#CI)CCCC1.Cc1ccc(S(=O)(=O)[O-])cc1 [Compound 36, 1-tetradecyl-1-(3-iodopropargyl)-pyrrolidinium 4-methylbenzenesulfonate] | 1 ppm | 1.9 ppm | 5 ppm |
| CC1(C)C(=O)N(Cc2ccccc2)C(=O)N1CC#CI [Compound 138, 1-(3-iodopropargyl)-3-benzyl-5,5-dimethylhydantoin] | – | 2.5 ppm | 20 ppm |
